In paper PMC6560211, “ApoAI-derived peptide increases glucose tolerance and prevents formation of atherosclerosis in mice” (Diabetologia, 2019):
No end group written: not given here.

Assay: Peptide stability in physiologic buffer or blood plasma
Assay type: in vitro ADME
Conditions: after denaturation/refolding; phosphate buffer, human plasma (citrate, pooled from four donors) or mouse CD-1 plasma (heparin); over 2 h; LC-MS/MS
Procedure: Peptide (lyophilised powder) produced by Red Glead (Lund, Sweden) was reconstituted in Milli-Q water and then either used directly or mixed in a 1:1 ratio with 6 mol/l guanidine HCl in 2× PBS to give a monodisperse solution, followed by desalting using a column equilibrated with PBS, pH 7.4, using ÄKTAxpress fast protein LC (GE Healthcare, Uppsala, Sweden). Peptide integrity was analysed using circular dichroism spectroscopy. Peptide solubility was assayed at Red Glead using HPLC. Peptide stability in physiologic buffer or blood plasma (human or mouse) over 2 h was assayed at the Science for Life Laboratory (Uppsala, Sweden). […]
Peptide concentration was determined at 205 nm using a NanoDrop 2000c spectrophotometer (Thermo Scientific) and integrity was analysed by Tris-Tricine SDS-PAGE followed by coomassie staining or by circular dichroism spectroscopy (CD). […]
The primary goal of this study was to investigate the anti -diabetic and anti-atherosclerotic efficacy of a novel ApoA -I derived peptide. Using a range of in vitro models, we assessed the effects of the peptide on HDL formation, cholesterol efflux, insulin secretion, and non -insulin dependent glucose uptake. […] Peptide effects were measured relative to full length ApoA -I and vehicle controls. […]
Supernatants were recovered and insulin secretion was analysed by ELISA (Mercodia). […]

## Ac-AEYHAKATEHLSTLSEKAKPALEDLRQGLLPVLESFKVSFLSALEEYTKKLNTQ [RG54]
  peptide integrity by peptide stability assays (buffer or plasma): confirmed
